Test results published in ChEMBL document CHEMBL1148230, “Synthesis, characterization and evaluation of pro-drugs of VLA-4 antagonists” (Bioorg Med Chem Lett, 2004).
Values after ≈ are worked out from the molar mass of the structure shown.

Experiments:
[1] = Solubility in SGF buffer system; assay type: physicochemical
[2] = Permeability in Caco-2 assay at 10E-6; assay type: ADME; settings: human, read-out: Activity
[3] = Solubility in SIF buffer system; assay type: physicochemical
HUVEC = experiment: Inhibitory activity against VLA-4 mediated adhesion to human vein endothelial cells; assay type: functional, cell-based
[4] = Solubility in SIBLM buffer system; assay type: physicochemical
[5] = Stability in rat plasma was determined; assay type: ADME
[6] = Log Doctanol value by HPLC peak area analysis of aqueous and octanol phases at pH 6.5; assay type: physicochemical; settings: octanol/aqueous phase, read-out: LogD6.5
[7] = Log Doctanol value by HPLC peak area analysis of aqueous and octanol phases at pH 4.5-6.5; assay type: physicochemical
[8] = Log Doctanol value by HPLC peak area analysis of aqueous and octanol phases at pH 4.5; assay type: physicochemical; settings: octanol/aqueous phase
[9] = Solubility in SIF buffer system; ND= not detectable; assay type: physicochemical; settings: simulated gi fluid
[10] = Solubility in SGF buffer system; ND=not detectable; assay type: physicochemical; settings: simulated gi fluid
[11] = octanol/aqueous phase, read-out: logD

CN(C)C(=O)Oc1ccc(C[C@H](NC(=O)[C@H]2N(S(=O)(=O)c3ccn(C)n3)CSC2(C)C)C(=O)O)cc1
solubility [1]: 3300 µg/mL (≈ 6120 µM)
Papp [2]: > 0.07 ×10⁻⁶ cm/s
solubility [3]: > 20000 µg/mL
IC50 (HUVEC): 6 nM
solubility [4]: 20000 µg/mL (≈ 37100 µM)

COCCOCCOC(=O)[C@H](Cc1ccc(OC(=O)N(C)C)cc1)NC(=O)[C@H]1N(S(=O)(=O)c2ccn(C)n2)CSC1(C)C
solubility [1]: 2830 µg/mL (≈ 4410 µM)
half-life [5]: 13.1 min
logD [6]: 1.42
logD [7, 11]: 1.41
Papp [2]: 2.03 ×10⁻⁶ cm/s
solubility [3]: 2400 µg/mL (≈ 3740 µM)
solubility [4]: 4650 µg/mL (≈ 7250 µM)

CN(C)C(=O)Oc1ccc(C[C@H](NC(=O)[C@H]2N(S(=O)(=O)c3ccn(C)n3)CSC2(C)C)C(=O)OCOC(=O)C(C)(C)C)cc1
solubility [1]: 13 µg/mL (≈ 19.9 µM)
half-life [5]: 2.82 min
logD [6]: 3.17
logD [8]: 3.1
Papp [2]: 2.49 ×10⁻⁶ cm/s
solubility [9]: Not detectable
solubility [4]: 119 µg/mL (≈ 182 µM)

CCOC(=O)[C@H](Cc1ccc(OC(=O)N(C)C)cc1)NC(=O)[C@H]1N(S(=O)(=O)c2ccn(C)n2)CSC1(C)C
solubility [1]: 629 µg/mL (≈ 1110 µM)
half-life [5]: 8.08 min
logD [6]: 2
logD [8]: 2.27
Papp [2]: 4.24 ×10⁻⁶ cm/s
solubility [3]: 341 µg/mL (≈ 601 µM)
solubility [4]: 1180 µg/mL (≈ 2080 µM)

CC(C)OC(=O)[C@H](Cc1ccc(OC(=O)N(C)C)cc1)NC(=O)[C@H]1N(S(=O)(=O)c2ccn(C)n2)CSC1(C)C
solubility [1]: 94.9 µg/mL (≈ 163 µM)
half-life [5]: 10.9 min
logD [6]: 2.47
logD [8]: 2.45
Papp [2]: 6.83 ×10⁻⁶ cm/s
solubility [3]: 45.5 µg/mL (≈ 78.2 µM)
solubility [4]: 158 µg/mL (≈ 272 µM)

CN(C)C(=O)Oc1ccc(C[C@H](NC(=O)[C@H]2N(S(=O)(=O)c3ccn(C)n3)CSC2(C)C)C(=O)OCC(C)(C)C)cc1
solubility [1]: 0.334 µg/mL (≈ 0.548 µM)
half-life [5]: 53.4 min
logD [7, 11]: 3.43
logD ([7]; octanol/water): 3.42
Papp [2]: 4.52 ×10⁻⁶ cm/s
solubility [9]: Not detectable
solubility [4]: 6.97 µg/mL (≈ 11.4 µM)

CN(C)C(=O)Oc1ccc(C[C@H](NC(=O)[C@H]2N(S(=O)(=O)c3ccn(C)n3)CSC2(C)C)C(=O)OCCOc2ccccc2)cc1
half-life [5]: 1.6 min
logD [6]: 3.34
solubility [10]: Not detectable
logD [8]: 3.21
Papp [2]: 7.58 ×10⁻⁶ cm/s
solubility [3]: 0.506 µg/mL (≈ 0.767 µM)
solubility [4]: 24 µg/mL (≈ 36.4 µM)
